Patent US5693330A, “Skin care compositions containing melinamide and a retinoid” (priority 1996, dated 1997)
Where two headings read alike, the source gives them in different places.

System: Human keratinocytes
Assay: 3H-thymidine incorporation by cultured keratinocytes (keratinocyte proliferation)
Format: cell-based
Details: for effect on keratinocyte proliferation (summary): Examples 1-3; for activity at 0.1 µM / activity at 0.25 µM / activation at 0.25 µM / activation at 0.025 µM / activity at 0.025 µM: Homo sapiens, Keratinocyte; for activity at 0.1 µM / activity at 0.25 µM / activity at 0.025 µM: read-out: mean Thymidine incorp/μg protein (% control)
Protocol: Human keratinocytes, isolated from neonatal foreskin by trypsin treatment were grown in Dulbecco Modification Eagle (DME) Hams F12 (1:1) medium/10% fetal calf serum in the presence of irradiated 3T3 mouse fibroblasts for establishing dividing keratinocyte colonies. Cells were grown under the above condition until their second passage and kept frozen for future use. Frozen second passage keratinocytes were thawed and plated into the above medium and grown for five days before they were switched to a serum-free MCDB 153-based medium keratinocyte growth medium (KGM) from Clonetics Corporation, San Diego, Calif., containing 0.15 mM Ca, or keratinocyte serum-free media (KSFM) from GIBCO containing 0.09 mM Ca). On day 7, when the cells were 80-90% confluent, they were trypsinized and plated in the serum-free medium for the various experiments.
The incorporation of ^3 H-thymidine by cultured keratinocytes was used as an assay of keratinocyte proliferation. Thymidine is one of four deoxynucleosides which are the monomeric units of DNA, the universal library of genetic information in the animal kingdom. Prior to cell division of a somatic cell such as a keratinocyte, the complete genome of the cell undergoing cell division is replicated. This involves large scale DNA synthesis by the cell and enables both daughter cells to receive identical copies of the genetic material. When ^3 H-thymidine is included in the culture media of keratinocytes which are synthesizing DNA in preparation for cell division then the labelled nucleoside is incorporated into the newly synthesized DNA. The extent of incorporation of ^3 H-thymidine into a population of cells is proportional to the rate of DNA synthesis by this population of cells and therefore an indication of their cellular proliferation.
Keratinocytes (that were cultured as described above) were plated in 24 well plates at a density of 40,000 cells per well in 1 ml media. After incubation for four days or until the cells were 60-70% confluent, the media was changed. Test compounds were added (in triplicate) to the wells 24 hours after the media change, and four hours later 1 μCl ^3 H-Thymidine in 50 μl media was added per well. Cells were incubated for a further 24 hours. Media was removed from the cells, 10% ice cold trichloroacetic acid (TCA) added and plates were incubated on ice for 30 minutes. Cells were washed five times with 5% TCA and allowed to dissolve in 500 μl […] NaOH for at least one hour (usually overnight). The preparations were neutralized with 0.1M HCl; 50 μl of the cell preparation was used to determine total protein content. Disintegrations per minute (DPM) from ^3 H labelling of DNA was determined by liquid scintillation counting of […] of the cell preparation. Thymidine incorporation results were expressed as DPM/μg protein.
A. The effect on incorporation of ^3 H-thymidine μg soluble protein 24 hours after the addition of retinoic acid or retinol at various concentrations was examined.
The effect on incorporation of ^3 H-thymidine/μg soluble protein 24 hours after addition of the test compounds was examined and the combined results of three independent experiments were normalized to their respective ethanol controls.
The effect of melinamide and the retinyl ester (retinyl palmitate) on incorporation of ^3 H-thymidine was examined.

[1] = Example 2, 2.5 × 10^-8 M, n = 3, 24 hours, three experiments normalized to ethanol controls
[2] = read-out: increase in keratinocyte thymidine incorporation over the ethanol control

Structure (SMILES): CCCCC/C=C\C/C=C\CCCCCCCC(=O)NC(C)c1ccccc1 (stereo not shown) [Melinamide, melinamide]
- effect on keratinocyte proliferation on its own (Example 2, 10^-7 M): no effect
- mean Thymidine incorp/μg protein ± s.d (Example 2, 10^-7 M, n = 3, 24 hours, three experiments normalized to ethanol controls): 4695 ± 324 DPM/μg protein
- effect on keratinocyte proliferation on its own (Example 3, 10^-7 M): no effect
- mean Thymidine incorp/μg protein ± s.d (Example 3, 10^-7 M): 4635 ± 608 DPM/μg protein
- effect on keratinocyte proliferation (summary): little or no benefit on its own
- activity at 0.1 µM (24 h, Example 2, 10^-7 M, n = 3, 24 hours): 91%
- activity at 0.1 µM (24 h, Example 3, 10^-7 M): 84%

Structure (SMILES): CC1=C(/C=C/C(C)=C/C=C/C(C)=C/C(=O)O)C(C)(C)CCC1 [RA, Retinoic acid]
- keratinocyte proliferation over both the ethanol control and each of the retinol treatments (Example 1, 2.5×10^-7 M, 2.5×10^-8 and 2.5×10^-9 M): significantly increased keratinocyte proliferation
- mean Thymidine incorp/μg protein ± s.d [1]: 6711 ± 402 DPM/μg protein
- mean Thymidine incorp/μg protein ± s.d (Example 3, 2.5 × 10^-7 M): 7795 ± 370 DPM/μg protein
- effect on keratinocyte proliferation (summary): increased keratinocyte proliferation
- activity at 0.25 µM (24 h, Example 3, 2.5 × 10^-7 M): 142%
- activation at 0.25 µM (read-out: increase in keratinocyte thymidine incorporation over the 2.5×10^-7 M retinyl palmitate treatment): 38%
- activation at 0.025 µM (read-out: increase in keratinocyte thymidine incorporation over the 2.5×10^-8 M retinol treatment): 30%
- activation at 0.025 µM [2]: 30%
- activation at 0.25 µM [2]: 38%
- activity at 0.025 µM (Example 2, 2.5 × 10^-8 M, n = 3, 24 hours): 130%

Structure (SMILES): CC1=C(/C=C/C(C)=C/C=C/C(C)=C/CO)C(C)(C)CCC1 [ROH, Retinol]
- mean Thymidine incorp/μg protein ± s.d [1]: 3956 ± 1303 DPM/μg protein
- effect on keratinocyte proliferation (summary): completely ineffective at increasing keratinocyte proliferation
- activity at 0.025 µM (24 h, Example 2, 2.5 × 10^-8 M, n = 3, 24 hours): 76%

Structure (SMILES): CCCCCCCCCCCCCCCC(=O)OC/C=C(C)/C=C/C=C(C)/C=C/C1=C(C)CCCC1(C)C [Retinyl palmitate, retinyl palmitate]
- mean Thymidine incorp/μg protein ± s.d (Example 3, 2.5 × 10^-7 M): 5746 ± 113 DPM/μg protein
- activity at 0.25 µM (24 h, Example 3, 2.5 × 10^-7 M): 104%
